# PubChem BioAssay AID1648 (Sanford-Burnham Center for Chemical Genomics, 2009)
# The source made the active and inactive calls. No rule for the calls is given here.
# Molecular target: Serine/threonine-protein kinase mTOR (Homo sapiens) (UniProt P42345)
# Experiment: mTOR FRB domain ligand binding – biophysical, NMR (AID 1648)
# Settings: NMR binding to FRB domain, chemical shift
# Sequence of Serine/threonine-protein kinase mTOR (Homo sapiens) (P42345 2015-2114): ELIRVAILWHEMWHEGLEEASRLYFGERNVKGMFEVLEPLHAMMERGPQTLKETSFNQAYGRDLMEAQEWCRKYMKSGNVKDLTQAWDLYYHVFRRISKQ
row,Compound,Kd
1,CCn1cnc2scc(-c3ccccc3)c2c1=O,> 4 mM (inactive)
2,CCN1CCN(c2ncnc3c2nnn3C)CC1,> 4 mM (inactive)
3,COc1ccc(NC(=O)c2ccc[n+]([O-])c2)cc1,> 4 mM (inactive)
4,O=c1nc(NCc2ccco2)sc2ncccc12,> 4 mM (inactive)
5,CCOC(=O)c1ccc(Oc2ccc(C)nn2)cc1,> 4 mM (inactive)
6,NCc1ccc(-c2ccccn2)s1,> 4 mM (inactive)
7,COc1ccc(-c2cc(=O)c3c(O)c(OC)c(O[C@H]4O[C@H](CO[C@@H]5O[C@@H](C)[C@H](O)[C@@H](O)[C@H]5O)[C@@H](O)[C@H](O)[C@H]4O)cc3o2)cc1,> 4 mM (inactive)
8,Cn1nnc2cc(C(=O)NCc3ccco3)ccc21,> 4 mM (inactive)
9,Cc1cc(C)nc(N(C#N)Cc2ccccc2)n1,> 4 mM (inactive)
10,Cc1cc(O)c2c(c1O)C(=O)c1c(O)cc(C)c(O)c1C2=O,> 4 mM (inactive)
11,C[n+]1cccc(C(=O)[O-])c1,> 4 mM (inactive)
12,O=C(c1cc(Cl)cc(Cl)c1)N1CCOCC1,> 4 mM (inactive)
13,COc1ccc2c(CC(=O)O)coc2c1,> 4 mM (inactive)
14,COc1c2c(cc3cc[n+](C)cc13)OCO2,> 4 mM (inactive)
15,CC1CCC2(OC1)OC1CC3C4CC[C@H]5C[C@@H](O)CC[C@]5(C)C4CC(=O)[C@]3(C)C1C2C (some centres not stated),> 4 mM (inactive)
16,OCC1CCCN2CCCCC12 (configuration not stated),> 4 mM (inactive)
17,CN1C(=O)c2ccc(C(=O)NCc3ccccc3)cc2C1=O,> 4 mM (inactive)
18,COc1cc2c(cc1O)[C@@H](Cc1ccc(O)cc1)[N+](C)(C)CC2,> 4 mM (inactive)
19,c1ccc2[nH]c(CCn3cncn3)nc2c1,> 4 mM (inactive)
20,Cc1cc(O)c(C)c(O)c1C(=O)O,> 4 mM (inactive)
21,O=C(NCN1CCOCC1)c1cccnc1,> 4 mM (inactive)
22,Cc1oc(-c2ccccc2)nc1CCO,> 4 mM (inactive)
23,COc1cnn(Cc2ccccc2)c(=O)c1Cl,> 4 mM (inactive)
24,O=c1c(Cl)c(NCCO)ncn1-c1ccccc1,> 4 mM (inactive)

row,Compound,Kd
1,O=c1cc(-c2ccc(O)cc2)[nH]c(=S)[nH]1,> 4 mM (inactive)
2,OCc1ccc2c(c1)OCO2,> 4 mM (inactive)
3,Cc1nc(SCC#N)c2c(C)c(C)sc2n1,> 4 mM (inactive)
4,COc1cc(/C=C/C(=O)O)ccc1O,> 4 mM (inactive)
5,O=S1(=O)CCC2CC=CCC21 (configuration not stated),> 4 mM (inactive)
6,CCCCCc1c2c(cc(O)c1C(=O)O)OC(=O)c1c(cc(OC)cc1C(=O)CCCC)O2,> 4 mM (inactive)
7,CC1=C(C(N)=O)C(c2ccco2)C(C(N)=O)=C(C)N1,> 4 mM (inactive)
8,Cc1cc(C)n(-c2nc(N)cc(=O)[nH]2)n1,> 4 mM (inactive)
9,CC(C)=NNC(=O)c1ccccc1,> 4 mM (inactive)
10,Cc1ccccc1NC(=O)c1ocnc1C,> 4 mM (inactive)
11,C[C@@H]1OC(O[C@H]2[C@H](OC(=O)[C@]34CCC(C)(C)CC3C3=CCC5[C@@]6(C)CC[C@H](OC7O[C@@H](C)[C@H](O[C@@H]8OC[C@@H](O)[C@H](O)[C@H]8O)[C@@H](O)[C@H]7O)C(C)(C)C6CC[C@@]5(C)[C@]3(C)CC4O)OC[C@H](O)[C@H]2O)[C@H](O)[C@H](O)[C@H]1O[C@@H]1O[C@H](CO)[C@@H](O)[C@H](O)[C@H]1O (some centres not stated),> 4 mM (inactive)
12,O=C(NCc1cccs1)c1nc2ncccn2n1,> 4 mM (inactive)
13,CC(C)NC1CS(=O)(=O)CC1O (configuration not stated),> 4 mM (inactive)
14,CNC(=O)C(=O)NCc1ccc(C)cc1,> 4 mM (inactive)
15,NC(=NCCC[C@H](N)C(=O)O)NC(CCC(=O)O)C(=O)O (some centres not stated),> 4 mM (inactive)
16,Cc1cccc(NS(=O)(=O)c2cccs2)n1,> 4 mM (inactive)
17,CC1(C)Cc2cccc(C(=O)O)c2O1,> 4 mM (inactive)
18,C=C1C2CC[C@@]3(C)[C@H](c4ccoc4)OC(=O)C[C@]13O[C@H]1C[C@H](OC(C)=O)C(C)(C)[C@H](CC(=O)OC)[C@@]21C,> 4 mM (inactive)
19,CC(C)(C)C(=O)Nc1ncc(C(F)(F)F)cc1Cl,> 4 mM (inactive)
20,O=c1c(O)c(-c2ccc(O)cc2O)oc2cc(O)cc(O)c12,> 4 mM (inactive)
21,O=C1C(=O)N(CNc2ncccn2)c2ccccc21,> 4 mM (inactive)
22,CSc1nc(C)c(Oc2ccccc2)c(=O)n1C,> 4 mM (inactive)
23,C=CC(C1=CC(=O)C(OC)=CC1=O)c1ccc(O)cc1 (configuration not stated),> 4 mM (inactive)
24,O=C(Nc1cccc(O)c1)c1ccccc1,> 4 mM (inactive)

row,Compound,Kd
1,O=C(Nc1nccs1)c1ccc(=O)[nH]n1,> 4 mM (inactive)
2,Nc1nc(-c2ccccc2)ns1,> 4 mM (inactive)
3,O=C(O)c1cc(O)c(O)c(O)c1,> 4 mM (inactive)
4,O=C(c1ccccc1-c1ccccc1)N1CCOCC1,> 4 mM (inactive)
5,Cc1cc(C)c2ccc[n+]([O-])c2c1O,> 4 mM (inactive)
6,COc1ccc(C)cc1S(N)(=O)=O,> 4 mM (inactive)
7,NC(=O)CSc1ccc(-c2ccccc2)nn1,> 4 mM (inactive)
8,COC1=CC(=O)C[C@@H](C)[C@]12Oc1c(Cl)c(OC)cc(OC)c1C2=O,> 4 mM (inactive)
9,CN1CCN(C(=O)/C=C\C(=O)O)CC1,> 4 mM (inactive)
10,Cn1c(=O)n(C)c2cc(C(N)=O)ccc21,> 4 mM (inactive)
11,COC(=O)[C@@H]1OC(=O)C2OC23[C@@]1(C)CCC1[C@@]2(C)CCC(=O)C(C)(C)C2C[C@@H](OC(C)=O)[C@]13C (some centres not stated),> 4 mM (inactive)
12,CCOC(=O)Cc1cc(=O)n2[nH]c(C)cc2n1,> 4 mM (inactive)
13,Cc1cc(C)n(CC(=O)NC2CCCCC2)n1,> 4 mM (inactive)
14,Cc1nn(CC(=O)Nc2ccccc2)c(=O)c2ccccc12,> 4 mM (inactive)
15,COc1ccccc1-c1nc(=S)[nH][nH]1,> 4 mM (inactive)
16,COc1ccc(/C=C2/NC(=S)NC2=O)cc1,> 4 mM (inactive)
17,O=C(Nc1nnc(C(F)(F)F)s1)c1cccnc1,> 4 mM (inactive)
18,CSc1ccc2nnc(-c3cccnc3)n2n1,> 4 mM (inactive)
19,OCc1cccs1,> 4 mM (inactive)
20,CCOC(=O)Nc1ccc2c(C)cc(=O)oc2c1,> 4 mM (inactive)
21,c1ccc(CCNc2ncnc3nc[nH]c23)cc1,> 4 mM (inactive)
22,O=C1NC(=S)N/C1=C/c1ccc(O)c(Cl)c1,> 4 mM (inactive)
23,COc1cc2c(cc1OC)[C@@H]1C(=O)c3ccc4c(c3O[C@@H]1CO2)CC(C(C)C)O4 (some centres not stated),> 4 mM (inactive)
24,CC(=O)Nc1ccc2c(c1)CCC2=O,> 4 mM (inactive)

row,Compound,Kd
1,CC1=C/C(=C\c2c(O)[nH]c(=O)[nH]c2=O)C(C)=N1,> 4 mM (inactive)
2,COc1ccccc1NC(C)=O,> 4 mM (inactive)
3,CS(=O)(=O)Nc1ccc(C(=O)N2CCCCC2)cc1,> 4 mM (inactive)
4,O=C(Nc1ccon1)c1ccc(Br)o1,> 4 mM (inactive)
5,COC(=O)c1noc(-c2ccc(OC)cc2)n1,> 4 mM (inactive)
6,CC(=O)NCc1nc2ccccc2[nH]1,> 4 mM (inactive)
7,NC(=O)CSc1ccc2nnc(-c3ccccc3)n2n1,> 4 mM (inactive)
8,CNC(=O)c1ccccc1N,> 4 mM (inactive)
9,CC1SC(=NC(=O)c2ccncc2)NC1=O (configuration not stated),> 4 mM (inactive)
10,Cc1cc(C)cc(C(=O)n2cnnc2N)c1,> 4 mM (inactive)
11,S=C(c1cccnc1)N1CCOCC1,> 4 mM (inactive)
12,Cc1n[nH]c(C)c1CN,> 4 mM (inactive)
13,O=C(CSc1nc2ccccc2[nH]1)N1CCCCC1,> 4 mM (inactive)
14,CC(=O)Nc1ccc2c(c1)C(=O)N(C1CCCCC1)C2=O,> 4 mM (inactive)
15,O=S1(=O)C=CC(Nc2ccccc2)C1 (configuration not stated),> 4 mM (inactive)
16,O=C(NC(=S)NC1CCSC1=O)c1ccco1 (configuration not stated),> 4 mM (inactive)
17,COc1c(C(C)C)oc2cc3oc(=O)ccc3cc12,> 4 mM (inactive)
18,CSc1nnnn1-c1cccc(O)c1,> 4 mM (inactive)
19,CN(C)C(=O)c1ccccc1-c1ccccc1,> 4 mM (inactive)
20,CC(C)(C)NC(=O)N1CCC(C(=O)O)CC1,> 4 mM (inactive)
21,O=C(O)c1csc(-c2ccccc2)n1,> 4 mM (inactive)
22,CNC(=O)c1cc2cccc(OC)c2oc1=O,> 4 mM (inactive)
23,O=c1c2ccccc2nc(-c2ccco2)n1-c1nccs1,> 4 mM (inactive)
24,NC(=O)CNC(=O)c1ccccc1,> 4 mM (inactive)

row,Compound,Kd
1,OCc1cccc2c1OCCO2,> 4 mM (inactive)
2,CCN(CC)S(=O)(=O)c1ccc(F)cc1,> 4 mM (inactive)
3,NC(=O)c1ccccc1NC(=O)c1cccnc1,> 4 mM (inactive)
4,Cc1occc1C(=O)Nc1nnc(C2CCCCC2)s1,> 4 mM (inactive)
5,Cc1ccc(NC(=O)C(=O)Nc2ccccn2)cc1,> 4 mM (inactive)
6,O=C1C[C@@H](c2ccccc2)Oc2cc(O)cc(O)c21,> 4 mM (inactive)
7,O=c1[nH]c2ccc(S(=O)(=O)NC3CC3)cc2[nH]1,> 4 mM (inactive)
8,COc1ccc(S(=O)(=O)N2CCC(C(N)=O)CC2)cc1,> 4 mM (inactive)
9,C[C@H](CCC(=O)O)[C@H]1CCC2C3C(CC[C@@]21C)[C@@]1(C)CC[C@@H](O)C[C@H]1C[C@@H]3O (some centres not stated),> 4 mM (inactive)
10,O=C1CC(c2c[nH]c3ccccc23)C(=O)N1 (configuration not stated),> 4 mM (inactive)
11,COc1ccccc1NC(N)=S,> 4 mM (inactive)
12,O=C(O)CSCc1ccc(Cl)cc1,> 4 mM (inactive)
13,Nc1ccc2c(c1)COc1ccccc1O2,> 4 mM (inactive)
14,Cc1nc2sc3c(c2c(=N)n1N)CC(C)(C)OC3,> 4 mM (inactive)
15,NC(=O)c1ccsc1NC(=O)C1=COCCO1,> 4 mM (inactive)
16,CCn1ncc(Cl)c1C(=O)Nc1ccncc1,> 4 mM (inactive)
17,NC(=O)C1CCN(c2ccc(Cl)nn2)CC1,> 4 mM (inactive)
18,COc1cc(C(=S)N2CCCC2)cc(Cl)c1O,> 4 mM (inactive)
19,NCc1csc(-c2ccccc2)n1,> 4 mM (inactive)
20,O=C1C=CC(=O)N1c1ccc(N2CCOCC2)cc1,> 4 mM (inactive)
21,C(=N\c1ncn[nH]1)/c1cccs1,> 4 mM (inactive)
